Test results taken from patent US7951407B2, “Ruminant feed containing N-carbamoyl glutamate” (University of Maryland, priority 2003, dated 2011).

Experiments:
[1] = tested on: Ruminal epithelial cells (REC); assay: Net urea production by isolated ruminal epithelial cells incubated with ornithine-urea cycle substrate intermediates; assay type: cell-based, sheep; set-up: net urea production: dose or concentration left out as unconfirmed
Excerpt: Ruminal epithelial cells (REC) and duodenal mucosal cells (DMC) were harvested from four growing Polypay ram lambs (33.1 plus/minus 4.8 kg body weight) fed a pelleted diet comprised of 55% forage (alfalfa hay) and 45% concentrate (dry ground corn. soybean meal, and premix of minerals and vitamins) ad libitum for at least two weeks before slaughter. All animal procedures were approved by the Beltsville Agricultural Research Center Institutional Animal Care and Use Committee (protocol # 02-008). Gut cells were isolated separately for each sheep following the procedures described by Baldwin and McLeod and Oba et al. Cell viability averaged 73.1% for REC and 82.4% for DMC. […] N-carbamoyl glutamate is a stable analog of […] stimulator of carbamoyl phosphate synthetase. Treatments were arranged in a 2×4 factorial design, and performed in triplicate incubations for each sheep. […] Krebs-Ringer plus 24 mM HEPES and 0.12 M sodium bicarbonate) was oxygenated with O2:CO2 (95:5) and the pH adjusted to 7.4. Incubations were initiated by addition of 0.5 ml of cell suspension (1×10^7 viable cells) to freshly gassed (20 s under 95:5 O2:CO2) media, and flasks were placed into a reciprocal action shaking water bath at 37° C. After 90 min, 0.2 ml of concentrated HClO4 was injected into the flasks to terminate the incubation, followed by addition of 0.3 ml of 5.8 M K2CO3 to neutralize the media. […] See Lobley, G. E. et al., Br. J. Nutr. […] Urea concentration was determined by isotope dilution with gas chromatography-mass spectrometry (HP6890 coupled to an HP5973 Mass Selective Detector, Agilent, Palo Alto, Calif.) essentially according to the known method of Calder et al. See Calder, A. G., Rapid Commun. […] Net urea production was calculated by subtracting background urea present at time 0 (Control) from concentrations after 90-min incubation. Data were analyzed separately for REC and DMC using the Proc Mixed procedure of SAS (SAS Inc., Cary, N.C.) with fixed effect of VFA type, substrate combination, their interactions, and random effect of animals in the model.

[2] = tested on: duodenal mucosal cells (DMC); assay: Net urea production by isolated duodenal mucosal cells incubated with ornithine-urea cycle substrate intermediates; assay type: cell-based, sheep; set-up: net urea production: dose or concentration left out as unconfirmed
Excerpt: Ruminal epithelial cells (REC) and duodenal mucosal cells (DMC) were harvested from four growing Polypay ram lambs (33.1 plus/minus 4.8 kg body weight) fed a pelleted diet comprised of 55% forage (alfalfa hay) and 45% concentrate (dry ground corn. soybean meal, and premix of minerals and vitamins) ad libitum for at least two weeks before slaughter. All animal procedures were approved by the Beltsville Agricultural Research Center Institutional Animal Care and Use Committee (protocol # 02-008). Gut cells were isolated separately for each sheep following the procedures described by Baldwin and McLeod and Oba et al. Cell viability averaged 73.1% for REC and 82.4% for DMC. […] Urea concentration was determined by isotope dilution with gas chromatography-mass spectrometry (HP6890 coupled to an HP5973 Mass Selective Detector, Agilent, Palo Alto, Calif.) essentially according to the known method of Calder et al. See Calder, A. G., Rapid Commun. […] Net urea production was calculated by subtracting background urea present at time 0 (Control) from concentrations after 90-min incubation. Data were analyzed separately for REC and DMC using the Proc Mixed procedure of SAS (SAS Inc., Cary, N.C.) with fixed effect of VFA type, substrate combination, their interactions, and random effect of animals in the model.

Q: What does the source list for NC(=O)N[C@@H](CCC(=O)O)C(=O)O [N-carbamoyl glutamate]?
A: effect of N-carbamoyl glutamate addition on urea synthesis ([1]; REC, AspONG versus AspON (P=0.11)): stimulatory effect; effect of N-carbamoyl glutamate addition on urea synthesis ([2]; AspONG versus AspON (P<0.001)): stimulatory effect

Q: With N=C(N)NCCC[C@H](N)C(=O)O [Arg, arginine] as the compound, how does the “net urea production by REC relative to DMC” value ([1]; REC versus DMC in the presence of arginine) read?
A: 25 fold

Q: What about the net urea production ([1]; REC, 90 min incubation in media, background urea at time 0 subtracted) of the same compound?
A: 54.5±6.3 nmoles·10^6 cells^−1 90 min^−1

Q: What about the net urea production ([2]; 90 min incubation in media, background urea at time 0 subtracted) of the same compound?
A: 2.1±0.7 nmoles·10^6 cells^−1 90 min^−1
